# Measured values reported in patent publication US10745352B2, “Dual function molecules for histone deacetylase inhibition and ataxia telangiectasia mutated activation and methods of use thereof” (Shuttle Pharmaceuticals, Inc., priority 2015, dated 2020).
# Assays:
# [1] = test system: normal prostate epithelial (RWPE1) cells vs prostate cancer (PC3) cells; test: MTT cytotoxicity assay, normal prostate epithelial cells versus prostate cancer cells; assay type: cell-based
# Procedure: Certain compounds of the invention were tested in an MTT cytotoxicity assay against a breast cancer cell line (MCF7), prostate cancer cell line (PC3), cervical cancer cell line (CasKi), and head and neck cancer cell line (SQ20B). In the breast and prostate cancer MTT assays, certain compounds of the invention were also tested against normal breast (MCF10A) and prostate (RWPE1) epithelial tissues.
# Specifically, the compounds tested included SP-1-161, SP-1-229, and SP-1-303. Suberoylanilide hydroxamic acid (SAHA), a known HDAC inhibitor, was also tested in the assay as control.
# [2] = test system: breast cancer cells (MCF7 cells); test: Clonogenic cytotoxicity assay, breast cancer cells; assay type: cell-based; conditions: Homo sapiens, cell line not named in the sentence (FIG. 9: MCF7 and 184A1)
# Procedure: Certain compounds of the invention were tested in both an MTT cytotoxicity assay and clonogenic cytotoxicity assay against breast cancer cells (MCF7 cells) and normal breast tissue cells (184A1 cells) to determine the cytotoxic effect of such cells as a function of concentration.
# Specifically, the compounds tested included: N-(6-(hydroxyamino)-6-oxohexyl)-3-methyl-1H-indole-2-carboxamide (SP-1-161); -hydroxy-N^6-(2-(2-methyl-1H-indol-3-yl)ethyl)octanediamide (SP-1-163); (S)—N-(6-(hydroxyamino)-6-oxohexyl)-1-tosylindoline-2-carboxamide (SP-1-169); and (S)-1-((5-(dimethylamino)naphthalene-1-yl)sulfonyl)-N-(6-(hydroxyamino)-6-oxoheyl)indoline-carboxamide (SP-1-171).
# [3] = test system: healthy breast epithelial cells (184A1 cells); test: Radiation clonogenic survival, normal breast epithelial cells; assay type: cell-based; conditions: compound at IC50 concentration for 24 h, then gamma radiation; compared with DIM
# Procedure: N-(6-(hydroxyamino)-6-oxohexyl)-3-methyl-1H-indole-2-carboxamide (SP-1-161) was tested against DIM in a radiation clonogenic survival study with healthy breast epithelial cells (184A1 cells) (FIG. 11A) and breast cancer cells (MCF7 cells) (FIG. 11B). After treatment with the compounds of the invention for 24 hours, the cells were exposed to graded doses of gamma radiation.
# Logarithmically growing cells were seeded into T-25 flasks at various densities to yield approximately 50-100 colonies/flask. After incubation for 24 h at 37° C., cells were treated or not with the compound at the IC50 concentration for 24 h followed by sham or irradiation at room temperature using a Mark-30 irradiator with a 137-Cs source at a fixed dose rate of 2.27 Gy/min. After 10-14 days, cells were fixed and stained with crystal violet, and colonies of more than 50 cells were counted. The surviving fractions of the treated cells were normalized to the plating efficiencies of untreated controls. Radiation survival curves were fitted by computer to the single-hit, multitarget and the linear-quadratic models.
# The radiation sensitivity of cells is defined by the terminal slope of the radiation survival curve, which is referred to as D0. The steeper the slope, the smaller is the value of D0, and thus the more radiation sensitive the respective cells. […]
# ATM = ATM activation: phospho-ATM (S1981) ELISA on the nuclear fraction of MCF7 cells; assay type: cell-based, Human; conditions: 1 μM, time course of 6 hours
# Procedure: Several assays were utilized to determine the ability of the compounds of the invention to activate ATM over a period of time. […] The fold change in phospho-ATM was measured over a period of time. Accordingly, the increase in phospho-ATM indicates activation of ATM by the compounds of the invention.
# In certain examples, the activity of the compounds of the invention was compared to additional modulators of ATM, such as […] (a specific ATM inhibitor); dimethylsulfoxide (DMSO) (a solvent); 3,3′-diindolylmethane (DIM) (an ATM activator); and irradiation (irradiation may result in the generation of phospho-ATM due to DNA damage). DIM was not used as a comparative compound in Example 5.
# Materials: MCF7 Cells; Complete RPMI media: RPMI, 10% Fetal Bovine Serum (FBS), 5% L-glutamine, 5% Pen/Strep; R&D Systems Human P-ATM (S1981) DuoSet IC ELISA Assay Kit; Plate sealers; Normal mouse serum (heat inactivated 56 C for 30 min); 96-well ELISA microtiter plate; 450 nm Plate Reader; 60 mm dishes; Disposable pipettes; Pipet-aid; Pipette tips; Micro-pipetter; Cell scraper; Distilled water; Pierce NE-PER Nuclear and Cytoplasmic Extraction Reagent; Pierce Protease and Phosphotase Inhibitor Mini Tablets; KU-55933; DIM (not used in Example 5); Dimethyl sulfoxide (DMSO); Phosphate buffered saline (PBS); and Sterile micro-tubes and conical tubes; Hemocytometer; Microscope; Micro-centrifuge.
# MCF7 Cells were grown in Complete RPMI media and 10^6 cells were seeded into 60 mm dishes. Dishes were then divided into duplicate treatments the following day. Control samples were treated with 3 ml RPMI media for 1 hr. Vehicle samples were treated with 3 ml RPMI media plus 0.1% DMSO for 1 hr. Negative control samples were treated with 10 μM KU-55933 in 3 ml RPMI media plus 0.1% DMSO for 1 Hr. Positive control samples were treated with 0.5 μM DIM in 3 ml RPMI media plus 0.1% DMSO for 30 min. Test Samples were treated with 1 μM of the test compounds (e.g. N-(6-(hydroxyamino)-6-oxohexyl)-1H-indole-2-carboxamide in Example 5) in 3 ml RPMI media plus 0.1% DMSO for 30 min; 1 hr; 2 hrs; 4 hrs; and 6 hrs. At their designated time, samples were harvested on ice using a cell scraper and two washes of 1 ml PBS and kept as a cell pellet on dry ice until all were collected. After all samples were collected they were thawed on ice and separated into cytosolic and nuclear fractions using the Pierce NE-PER Nuclear and Cytoplasmic Extraction Reagent kit with added Pierce protease and phosphotase inhibitor tablet.
# After recovery of the separate fractions, the process further included washing cells by suspending the cell pellet with PBS. 1-10×10^6 cells were transferred to a 1.5 mL microcentrifuge tube and a pellet was formed by centrifugation at 500×g for 2-3 minutes. […]
compound,measurement,setting,value
"Cc1c(C(=O)NCCCCCC(=O)NO)[nH]c2ccccc12 [SP-1-161, N-(6-(hydroxyamino)-6-oxohexyl)-3-methyl-1H-indole-2-carboxamide]",fold less toxic in normal prostate epithelial (RWPE1) cells than in prostate cancer (PC3) cells,[1],15 fold
same,IC50,[2],276 nM
same,protection of normal cells from radiation (184A1),[3],protected normal cells from radiation-mediated killing
same,"ATM activation (level of ATM phosphorylation, phospho-ATM)",ATM,exemplary ATM activation activity
